Results on 1 molecule are retold here after patent US20170049726A1, “METFORMIN IN TREATMENT OF NEUROBLASTOMA” (UNIVERSITY OF SOUTH CAROLINA, priority 2015, published 2017).

One test deals with SK-N-BE(2) spheroids. As to the kind of experiment: Immunofluorescence of cleaved caspase-3 in SK-N-BE(2) spheroids. Particulars: metformin-treated SK-N-BE(2) spheroids. It is filed as cell-based, human. The method, then: (§1) Neuroblastoma cells grown in Lab-TekII chamber slides (Fisher Scientific, Pittsburgh, Pa.) were treated with metformin in complete culture medium. After treatments, cells were washed with 1×PBS, fixed with 4% paraformaldehyde/PBS for 20 min, and incubated in 1×PBS buffer containing 0.1M glycine and 0.3% Triton X-100 for 30 min at room temperature. Cells were washed with 1×PBS for 4 times (10 min each) and blocked with 5% immunoglobulin (IgG)-free bovine serum albumin (BSA; Jackson ImmunoResearch Laboratories, West Grove, Pa.) in 1×PBS for overnight at 4° C. Cells were incubated with antibodies raised against sox2, oct4 and nanog, and active form of caspase-3 diluted in 2.5% BSA+0.3% Triton X-100 in PBS for overnight at 4° C. Primary antibodies were detected with secondary antibodies conjugated with AlexaFluor-488 or AlexaFluor-568 for 2 h at room temperature. After washing with 1×PBS, cells were mounted with antifade Vectashield™ mounting media (Vector Laboratories, Burlingame, Calif.), and signals were visualized under Nikon™-E600 fluorescence microscope. Nuclei were stained with 4′, 6-diamidino-2-phenylindole (DAPI; Sigma).

For test [1], the system named is SK-N-BE(2) cells. As to the kind of experiment: Secondary spheroid formation assay (self-renewal). It counts as cell-based, human. As to conditions: metformin at lower concentration (0.1 mM), 20 days. The method, then:
(§2) For spheroid formation, adherent cells were trypsin digested (0.25% Trypsin-EDTA) for 3-4 min at 37° C., washed and suspended in the serum-free stem cell specific medium [DMEM/F-12 medium (Lonza, Switzerland) supplemented with 1% N-2 supplement, 2% B-27 without vitamin A, 20 ng/ml human recombinant epidermal growth factor (hrEGF), 20 ng/ml human recombinant basic fibroblast growth factor (bFGF) and 1% antibiotic-antimycotic solution; all from Gibco]. The dispersed single cells were plated at density of 1,000 cells/well in Costar ultra-low attachment six-well plates (Corning Inc., Corning, N.Y.), and treated with indicated concentrations of metformin. […]
To test the effect of metformin in neuroblastoma spheroid formation, SK-N-BE(2) cells were grown in stem cell specific medium on ultra-low attachment plates and the growth of spheroid formation was monitored For spheroid formation assays, SK-N-BE(2) cells were seeded at density of 1000 cells per well in six-well plate in stem cell-specific medium with or without metformin (0.1, 0.5, 1, 10 and 20 mM). After 20 days, pictures of formed spheroids were taken and the number of spheroids equal to or larger than 100 μm in size (termed primary spheroids) was counted (FIG. 7 at A and B). […] Secondary spheroid formation (as an indicator of self-renewal potential of neuroblastoma spheres) was analyzed. […]

For test [2], the system named is tumors generated from SK-N-BE(2) spheroids. As to the kind of experiment: In vivo xenograft of tumors generated from SK-N-BE(2) spheroids. The arrangement: species or system athymic nude mice (nu/nu). As to conditions: 100 mg/kg daily by oral gavage, 21 days of treatment, nude mice. The method, then: SK-N-BE(2) neuroblastoma spheroids (15-day-old) were dissociated by trypsinization, washed with stem cell specific medium and counted. 1×10^5 cells were mixed (1:1 volume) with EGF-reduced matrigel (BD Bioscience, San Jose, Calif.) to make total volume of 0.1 ml. The cell mixture (0.1 ml) was injected subcutaneously (s.c.) into flanks of 6-week-old female nude athymic mice (nu/nu mice; Charles River Laboratories, Wilmington, Mass.). The animals were housed at 25° C. with a 12-h light/12-h dark cycle in laminar flow cabinets under specific pathogen-free conditions and given sterile water and food ad libitum. Engrafted mice were inspected for tumor appearance, and tumor growth was measured on every fourth day using a caliper. Tumor volume was calculated using the ellipsoid formula (length×width×height×0.5). […]
To assess whether metformin has inhibitory effects on the tumorigenicity of neuroblastoma stem cells, tumors were generated from neuroblastoma stem cells by inoculating tumor cells from SK-N-BE(2) spheroids (15-day-old) subcutaneously in to the flank region of athymic nude mice. […] The size of tumors was measured on every fourth day, and after 21 days of metformin treatment tumors were harvested and sizes were measured.

Another test relates to oct4. As to the kind of experiment: Western blot of stem cell marker protein oct4 in metformin-treated SK-N-BE(2) cells. Particulars: metformin 1, 10 and 20 mM, 2 days, vs untreated control. It is filed as cell-based, human. The method, then:
(§3) SH-SY5Y, IMR-32, SK-N-BE(2) and SKNF-1 human neuroblastoma cells were purchased from The American Type Culture Collection (ATCC; Manassas, Va.), and NGP cells were kind gift from Garrett M. Brodeur (The Children's Hospital of Philadelphia, Philadelphia, Pa.). Cells were maintained as monolayer in Dulbecco's Modified Eagle's Medium (DMEM) containing 10% fetal bovine serum (FBS; Atlanta Biologicals, Lawrenceville, Ga.) and 1% antibiotic-antimycotic solution (100 unit/ml penicillin, […]; Gibco, Grand Island, N.Y.) at 37° C. in a humidified incubator with 5% CO2. For all the experiments, cell culture passages from 4-12 were used.
(§4) Cells, either from monolayer or from spheroids, were dissociated by trypsinization, washed with 1× phosphate buffered saline (PBS), pH 7.5, and lysed with 1× cell lysis buffer (Cell Signaling Technology, Danvers, Mass.) containing phenylmethylsulfonyl fluoride (PMSF) and protease inhibitors (aprotinin and leupeptin) for 30 min on ice. […] Protein concentration was determined by bicinchoninic acid method using BCA protein assay kit (Pierce/Thermo-scientific, Waltham, Mass.). Equal amount of proteins were diluted with 5×Laemmli samples loading buffer, boiled for five minutes, separated on sodium dodecyl sulfate (SDS)-polyacrylamide gel, and analyzed by Western blotting. […]

The next test deals with SK-N-BE(2) tumors. As to the kind of experiment: Immunohistochemistry of cleaved caspase-3 and sox2 in SK-N-BE(2) tumor sections. It counts as in vivo, athymic nude mice (nu/nu). As to conditions: tumors from mice treated with metformin 100 mg/kg daily oral. The method, then:
For tumor tissue, paraformaldehyde-fixed paraffin-embedded tumor sections (5 μm thick) were deparaffinized in xylene, rehydrated with sequential immersion in graded ethanol (100%, 95%, 85%, 70% and 50%). Antigen unmasking was carried out by boiling slides in 10 mM sodium citrate buffer, pH 6.0, at 95° C. for 30 min. After cooling down at room temperature, sections were incubated with 0.1M glycine+0.3% Triton X-100/PBS for 30 min, and were blocked with 10% IgG-free BSA in 1×PBS for overnight at 4° C. Sections were incubated with primary antibodies diluted in 5% IgG-free BSA+0.3% Triton X-100/PBS (1:100 dilution) for overnight at 4° C. Primary antibodies were detected as described in previous paragraph. Primary antibodies used were: sox2, oct4 and nanog, and active form of caspase-3.
To determine if metformin inhibition of tumor growth resulted from apoptotic cell death in tumor stem cells, immunohistochemistry was performed by staining paraffin-embedded tumor sections with antibodies specific for active cleaved form of caspase-3 (an indicator of apoptosis) and stem cell specific marker sox2.

For test [3], the system named is SK-N-BE(2) cells. As to the kind of experiment: Primary spheroid formation assay. It is filed as cell-based, human. As to conditions: 20 days. The method, then:
as §2, with “metformin. The stock solution of metformin (MP Biomedicals, Solon, Ohio) was freshly prepared in sterile triple distilled water before each experiment. Cells treated with equal volume of vehicle were used as control. Cell culture medium was changed on every fourth day.” for “metformin.”
To test the effect of metformin in neuroblastoma spheroid formation, SK-N-BE(2) cells were grown in stem cell specific medium on ultra-low attachment plates and the growth of spheroid formation was monitored For spheroid formation assays, SK-N-BE(2) cells were seeded at density of 1000 cells per well in six-well plate in stem cell-specific medium with or without metformin (0.1, 0.5, 1, 10 and 20 mM). After 20 days, pictures of formed spheroids were taken and the number of spheroids equal to or larger than 100 μm in size (termed primary spheroids) was counted (FIG. 7 at A and B). […] Secondary spheroid formation (as an indicator of self-renewal potential of neuroblastoma spheres) was analyzed. After 20 days, the number of formed secondary spheroids (equal or larger than 100 μm in size) was counted and plotted (FIG. 7 at C).

Test [4] relates to SK-N-BE(2) cells. As to the kind of experiment: Immunofluorescence staining of cleaved caspase-3 and sox2 in SK-N-BE(2) monolayer cells. It is filed as cell-based, human. As to conditions: metformin 10 mM, 2 days. How it is done:
as §1, with “Sigma). […]” for “Sigma).”

For another test, the system named is nanog. As to the kind of experiment: Western blot of stem cell marker protein nanog in metformin-treated SK-N-BE(2) cells. It is filed as cell-based, human. As to conditions: metformin 1, 10 and 20 mM, 2 days, vs untreated control. How it is done: as §3, §4
In the next test the test system is sox2. As to the kind of experiment: Western blot of stem cell marker protein sox2 in metformin-treated SK-N-BE(2) cells. It counts as cell-based, human. As to conditions: metformin 1, 10 and 20 mM, 2 days, vs untreated control. How it is done: as §3, §4

Molecules are shown by their SMILES.

For the molecule `CN(C)C(=N)NC(=N)N` [metformin, N′,N′-dimethylbiguanide], in the test with SK-N-BE(2) spheroids, the “cleaved caspase-3 signal in sox2-expressing cells of spheroids” value is on record as “induced apoptotic death in spheroids”. In the test with SK-N-BE(2) cells [1], the secondary spheroid formation result is recorded as “significantly inhibited secondary spheroid formation”. The “size of the subcutaneous tumor vs control” value in test [2] was “less”. Also, the oct4 protein expression entry with oct4 was “No change”. For the same molecule, the “cytoplasmic cleaved caspase-3 signals in tumor tissues” value with SK-N-BE(2) tumors is on record as “present”. In the test on SK-N-BE(2) cells [3] (metformin 0.1 mM), the “number of primary spheroids vs control” value was “similar”. Further, in the test on SK-N-BE(2) cells [3] (metformin 0.5 mM and higher concentrations), the primary spheroid formation result was “reduced primary spheroid formation significantly”. Also, the “formation of primary spheroids (equal to or larger than 100 μm)” value in the test with SK-N-BE(2) cells [3] (metformin 0.1, 0.5, 1, 10 and 20 mM, overall vs control) is reported as “significantly decreased the formation of primary neuroblastoma spheroids in a dose dependent manner”. The “cleaved caspase-3 signals (apoptotic cell death)” value in the test with SK-N-BE(2) cells [4] is “present in both sox2-expressing and sox2-nonexpressing cells”. The “level of nanog protein” value with nanog is “dose dependently decreased”. Besides, the “level of sox2 protein” value with sox2 was “dose dependently decreased”.
